Legend:
[1] = test system: Phaeosphaeria nodorum (Septoria nodorum); test: Phaeosphaeria nodorum (Septoria nodorum) / wheat / leaf disc preventative (glume blotch); assay type: in vivo; conditions: Parastagonospora nodorum, foliar, wheat leaf segments cv. Kanzler, inoculated 2 days after application, assessed 5-7 days after application, read-out: control of Phaeosphaeria nodorum (percent disease control compared to untreated)
Experimental: Example B6: Phaeosphaeria nodorum (Septoria nodorum)/Wheat/Leaf Disc Preventative (Glume Blotch) Wheat leaf segments cv. Kanzler are placed on agar in a multiwell plate (24-well format) and sprayed with the formulated test compound diluted in water. The leaf disks are inoculated with a spore suspension of the fungus 2 days after application. The inoculated test leaf disks are incubated at 20° C. and 75% rh under a light regime of 12 h light/12 h darkness in a climate cabinet and the activity of a compound is assessed as percent disease control compared to untreated when an appropriate level of disease damage appears in untreated check leaf disks (5-7 days after application). […] […]-190.

Alternaria solani = Alternaria solani / tomato / leaf disc (early blight); assay type: in vivo; conditions: foliar, tomato leaf disks cv. Baby, inoculated 2 days after application, assessed 5-7 days after application, read-out: control of Alternaria solani (percent disease control compared to untreated)
Experimental: Example B1: Alternaria solani/Tomato/Leaf Disc (Early Blight) Tomato leaf disks cv. Baby are placed on agar in multiwell plates (24-well format) and sprayed with the formulated test compound diluted in water. The leaf disks are inoculated with a spore suspension of the fungus 2 days after application. The inoculated leaf disks are incubated at 23° C./21° C. […] […]-185.

Pyrenophora teres = Pyrenophora teres / barley / leaf disc preventative (net blotch); assay type: in vivo; conditions: foliar, barley leaf segments cv. Hasso, inoculated 2 days after application, assessed 5-7 days after application, read-out: control of Pyrenophora teres (disease control compared to untreated)
Experimental: Example B13: Pyrenophora teres/Barley/Leaf Disc Preventative (Net Blotch) Barley leaf segments cv. Hasso are placed on agar in a multiwell plate (24-well format) and sprayed with the formulated test compound diluted in water. The leaf segments are inoculated with a spore suspension of the fungus 2 days after application. The inoculated leaf segments are incubated at 20° C. and 65% rh under a light regime of 12 h light/12 h darkness in a climate cabinet and the activity of a compound is assessed as disease control compared to untreated when an appropriate level of disease damage appears in untreated check leaf segments (5-7 days after application). […] […]-185.

[2] = test system: Glomerella lagenarium (Colletotrichum lagenarium); test: Glomerella lagenarium (Colletotrichum lagenarium) / liquid culture (anthracnose); assay type: cell-based; conditions: Colletotrichum orbiculare, PDB potato dextrose broth, 24° C., 3-4 days after application, read-out: control of Glomerella lagenarium (inhibition of growth, photometric)
Summary of the method: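 Conidia from cryogenic storage suspended in potato dextrose broth and added to DMSO compound solution in plates. Incubated at 24° C; growth inhibition read photometrically 3-4 days after application.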

[3] = test system: Monographella nivalis (Microdochium nivale); test: Monographella nivalis (Microdochium nivale) / liquid culture (foot rot cereals); assay type: cell-based; conditions: PDB potato dextrose broth, 24° C., 4-5 days after application, read-out: control of Monographella nivalis (inhibition of growth, photometric)
Summary of the method: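 Cryostored M. nivalis conidia mixed into potato dextrose broth and added to 96-well plates holding test compound in DMSO. Incubated at 24° C; growth inhibition read photometrically 4-5 days after application.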

[4] = test system: Mycosphaerella graminicola (Septoria tritici); test: Mycosphaerella graminicola (Septoria tritici) / liquid culture (Septoria blotch); assay type: cell-based; conditions: Zymoseptoria tritici, PDB potato dextrose broth, 24° C., 4-5 days after application, read-out: control of Mycosphaerella graminicola (inhibition of growth, photometric)
Summary of the method: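 Conidia from cryogenic storage were mixed into potato dextrose broth and added to test compound in DMSO. Plates were incubated at 24° C, and growth inhibition was read photometrically 4-5 days after application.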

[5] = test system: Magnaporthe grisea (Pyricularia oryzae); test: whole plant or invertebrate; assay type: in vivo; conditions: foliar, read-out: control of Magnaporthe grisea (percent disease control compared to untreated)
[6] = test system: Mycosphaerella arachidis (Cercospora arachidicola); test: Mycosphaerella arachidis (Cercospora arachidicola) / liquid culture (early leaf spot); assay type: cell-based; conditions: PDB potato dextrose broth, 24° C., 4-5 days after application, read-out: control of Mycosphaerella arachidis (inhibition of growth, photometric)
Experimental: Example B8: Mycosphaerella arachidis (Cercospora arachidicola)/Liquid Culture (Early Leaf Spot) Conidia of the fungus from cryogenic storage are directly mixed into nutrient broth (PDB potato dextrose broth). After placing a (DMSO) solution of test compound into a microtiter plate (96-well format), the nutrient broth containing the fungal spores is added. The test plates are incubated at 24° C. and the inhibition of growth is determined photometrically 4-5 days after application. […] […]-180.

[7] = test system: Puccinia recondita f. sp. tritici; test: Puccinia recondita f. sp. tritici / wheat / leaf disc preventative (brown rust); assay type: in vivo; conditions: foliar, wheat leaf segments cv. Kanzler, inoculated 1 day after application, assessed 7-9 days after application, read-out: control of Puccinia recondita f. sp. tritici, preventative (percent disease control compared to untreated)
Summary of the method: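 Wheat leaf segments (cv. Kanzler) on agar were sprayed with formulated compound, then inoculated with spores 1 day later. Segments were incubated at 19 °C, 75% rh with 12 h light/dark. Percent disease control versus untreated was scored 7–9 days after application.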

[8] = test system: Blumeria graminis f. sp. tritici (Erysiphe graminis f. sp. tritici); test: Blumeria graminis f. sp. tritici / wheat / leaf disc preventative (powdery mildew on wheat); assay type: in vivo; conditions: foliar, wheat leaf segments cv. Kanzler, inoculated 1 day after application, assessed 6-8 days after application, read-out: control of Blumeria graminis f. sp. tritici (percent disease control compared to untreated)
Description: Example B4: Blumeria graminis f. sp. tritici (Erysiphe graminis f. sp. tritici)/Wheat/Leaf Disc Preventative (Powdery Mildew on Wheat) Wheat leaf segments cv. Kanzler are placed on agar in a multiwell plate (24-well format) and sprayed with the formulated test compound diluted in water. The leaf disks are inoculated by shaking powdery mildew infected plants above the test plates 1 day after application. […] […]-192.

[9] = test system: Botryotinia fuckeliana (Botrytis cinerea); test: Botryotinia fuckeliana (Botrytis cinerea) / liquid culture (gray mould); assay type: cell-based; conditions: Vogels broth, 24° C., 3-4 days after application, read-out: control of Botryotinia fuckeliana (inhibition of growth, photometric)
Experimental: Example B2: Botryotinia fuckeliana (Botrytis cinerea)/Liquid Culture (Gray Mould) Conidia of the fungus from cryogenic storage are directly mixed into nutrient broth (Vogels broth). After placing a (DMSO) solution of test compound into a microtiter plate (96-well format), the nutrient broth containing the fungal spores is added. The test plates are incubated at 24° C. and the inhibition of growth is determined photometrically 3-4 days after application. […] […]-190.

COc1ccc(Nc2cc(F)cc(F)c2)nc1C(=O)NCC(C)(C)C [Compound P-22, 6-(3,5-difluoroanilino)-N-(2,2-dimethylpropyl)-3-methoxy-pyridine-2-carboxamide]
≥ 80%: pest or weed control at 200 ppm [1] | pest or weed control at 200 ppm (Alternaria solani) | pest or weed control at 200 ppm (Pyrenophora teres) | inhibition at 20 ppm [2] | inhibition at 20 ppm [3] | inhibition at 20 ppm [4] | pest or weed control at 200 ppm [5] | inhibition at 20 ppm [6] | pest or weed control at 200 ppm [7] | pest or weed control at 200 ppm [8]

COc1ccc(Nc2cc(F)cc(F)c2)nc1C(=O)NCc1cc(F)cc(F)c1 [Compound P-26, 6-(3,5-difluoroanilino)-N-[(3,5-difluorophenyl)methyl]-3-methoxy-pyridine-2-carboxamide]
≥ 80%: pest or weed control at 200 ppm [1] | pest or weed control at 200 ppm (Pyrenophora teres) | inhibition at 20 ppm [2] | inhibition at 20 ppm [3] | inhibition at 20 ppm [4] | pest or weed control at 200 ppm [5] | inhibition at 20 ppm [6] | pest or weed control at 200 ppm [7] | pest or weed control at 200 ppm [8]

COc1ccc(NCC(O)CO)nc1C(=O)NCC(C)(C)C (stereo not shown) [Compound P-42, 6-(2,3-dihydroxypropylamino)-N-(2,2-dimethylpropyl)-3-methoxy-pyridine-2-carboxamide]
≥ 80%: inhibition at 20 ppm [9] | inhibition at 20 ppm [2]

COc1ccc(Nc2cc(F)cc(F)c2)nc1C(=O)NC1CCC1Oc1ccc(F)cc1 (stereo not shown) [Compound P-45, 6-(3,5-difluoroanilino)-N-[2-(4-fluorophenoxy)cyclobutyl]-3-methoxy-pyridine-2-carboxamide]
≥ 80%: pest or weed control at 200 ppm [1] | pest or weed control at 200 ppm (Alternaria solani) | pest or weed control at 200 ppm (Pyrenophora teres) | inhibition at 20 ppm [2] | inhibition at 20 ppm [3] | inhibition at 20 ppm [4] | pest or weed control at 200 ppm [5] | inhibition at 20 ppm [6] | pest or weed control at 200 ppm [7] | pest or weed control at 200 ppm [8]

COc1ccc(Nc2cc(F)cc(F)c2)nc1C(=O)NCc1ccc(Oc2ccccc2)cc1 [Compound P-57, 6-(3,5-difluoroanilino)-3-methoxy-N-[(4-phenoxyphenyl)methyl]pyridine-2-carboxamide]
≥ 80%: pest or weed control at 200 ppm [1] | pest or weed control at 200 ppm (Pyrenophora teres) | inhibition at 20 ppm [2] | inhibition at 20 ppm [3] | inhibition at 20 ppm [4] | pest or weed control at 200 ppm [5] | inhibition at 20 ppm [6] | pest or weed control at 200 ppm [7] | pest or weed control at 200 ppm [8]

COc1ccc(Nc2cc(F)cc(F)c2)nc1C(=O)NCC1(C(F)(F)F)CC1 [Compound P-62, 6-(3,5-difluoroanilino)-3-methoxy-N-[[1-(trifluoromethyl)cyclopropyl]methyl]pyridine-2-carboxamide]
≥ 80%: pest or weed control at 200 ppm [1] | pest or weed control at 200 ppm (Alternaria solani) | pest or weed control at 200 ppm (Pyrenophora teres) | inhibition at 20 ppm [2] | inhibition at 20 ppm [3] | inhibition at 20 ppm [4] | pest or weed control at 200 ppm [5] | inhibition at 20 ppm [6] | pest or weed control at 200 ppm [7] | pest or weed control at 200 ppm [8]

CCOc1ccc(Nc2cc(F)cc(F)c2)nc1C(=O)NC(C)(C)C [Compound P-94, N-tert-butyl-6-(3,5-difluoroanilino)-3-ethoxy-pyridine-2-carboxamide]
≥ 80%: pest or weed control at 200 ppm [1] | pest or weed control at 200 ppm (Alternaria solani) | pest or weed control at 200 ppm (Pyrenophora teres) | inhibition at 20 ppm [2] | inhibition at 20 ppm [3] | inhibition at 20 ppm [4] | pest or weed control at 200 ppm [5] | inhibition at 20 ppm [6] | pest or weed control at 200 ppm [8]

COc1ccc(Nc2ccc(C)c(F)c2)nc1C(=O)NCC(C)(C)C [Compound P-142, N-(2,2-dimethylpropyl)-6-(3-fluoro-4-methyl-anilino)-3-methoxy-pyridine-2-carboxamide]
≥ 80%: inhibition at 20 ppm [9] | inhibition at 20 ppm [2]

From patent publication US12458021B2, “Microbiocidal derivatives” (SYNGENTA CROP PROTECTION AG, priority 2019, dated 2025)
